Laboratory results taken from ChEMBL document CHEMBL1126416, “Caracasanamide, a novel hypotensive agent from Verbesina caracasana” (Bioorg Med Chem Lett, 1992).

Tests used:
Assay type in all cases: functional, organism-based
Rattus norvegicus [1] = assay: Concentration at which decrease blood pressure of anesthetized rat when administered intravenously; 50-6400 ug/kg body weight
Rattus norvegicus [2] = assay: Concentration at which increase cardiac inotropism of anesthetized rat when administered intravenously was observed; 50-6400 ug/kg body weight
Rattus norvegicus [3] = assay: Concentration at which increase in respiratory frequency of anesthetized rat when administered intravenously was observed; 50-6400 ug/kg body weight
Rattus norvegicus [4] = assay: Concentration at which increase in tidal volume of anesthetized rat when administered intravenously was observed; 50-6400 ug/kg body weight
Rattus norvegicus [5] = assay: Concentration at which no change in heart rate of anesthetized rat when administered intravenously was observed; 50-6400 ug/kg body weight

Measured: Concentration

COc1ccc(/C=C\C(=O)NCCCC/N=C(\N)NCC=C(C)C)cc1OC
50 µg/kg: all assays above
